Source: patent publication US11459341B1, “Organic anion lithium ionic cocrystal compounds and compositions” (UNIVERSITY OF SOUTH FLORIDA, priority 2013, dated 2022)

System: BV2 microglia cells
Experiment: NO (nitrite) production by LPS-activated BV2 microglia, Griess Reagent System
Type: cell-based
Conditions: treated 1 hour before 100 ng/ml LPS, nitrite in media 24 hours later
Method: BV2 microglia cells were treated with LIC (LiCl), LSC (Lithium saccharinate), LSCBTN and LSCSAR at 12.5 and 25 mM in DMEM for 1 hour prior to activation of microglia by 100 ng/ml LPS. Nitrite (NO^2−), a stable breakdown product of NO, was measured in the media 24 hours later using a Griess Reagent System (Promega).

| SMILES | inhibition of NO production by LPS-activated BV2 microglia (25 mM) | attenuation of NO production by LPS-activated BV2 microglia, comparison between lithium forms (12.5 and 25 mM (both/all concentrations tested)) |
| --- | --- | --- |
| [Cl-].[Li+] [LIC, LiCl] | only partially effective | – |
| O=C1[N-]S(=O)(=O)c2ccccc21.[Li+] [LSC, Lithium saccharinate] | – | outperformed LIC |
